This is an account of results in PMC7927863 (Antimicrobial Agents and Chemotherapy, 2020).

Where a name gives a salt, the structure may show the parent alone. Read-outs that look alike come from different tables or passages of the source.

Data set [1] has as its system SARS-CoV-2. The class given is cell-based. The settings on record: for antiviral effect on CoV-2 replication: up to 20 μM; for virus-yield decrease, CoV-2: nontoxic single dose, 48 h.
Data set [2] has as its system CoV-2 and HCoV-OC43. As to the kind of experiment: sofosbuvir antiviral evaluation in additional cells. It is filed as cell-based.
Data set [3] can be described thus: in vitro. The settings on record: human.
Data set [4] in a line: in vitro. To be noted: African green monkey.
Data set [5] concerns HCoV-OC43. As to the kind of experiment: microbe, parasite or virus in culture. The class given is cell-based. The settings on record: for EC50: Betacoronavirus 1, OC43, Huh-7, read-out: Antiviral activity against HCoV-OC43 Huh7 cells EC50; for antiviral activity against HCoV-OC43: up to 20 μM.
Data set [6] is described as follows: in vitro. To be noted: human. The source holds these as a separate data set.
A short description of data set [7]: in vitro. The settings on record: human. The source holds these as a separate data set.
Data set [8] deals with Vero CCL-81 cells.
The test system of data set [9] is COVID-19. To be noted: 1,063 hospitalized patients; placebo 15 days; P < 0.0001; cited from earlier work.
For data set [10], the system named is SARS-CoV-2. To be noted: read-out: reported EC50; Vero E6 cells; cited from earlier work.

The term EC50 denotes the concentration at which the effect is half-maximal. As for `CC(C)OC(=O)[C@H](C)N[P@](=O)(OC[C@H]1O[C@@H](n2ccc(=O)[nH]c2=O)[C@](C)(F)[C@@H]1O)Oc1ccccc1` [Compound 4, sofosbuvir], in data set [1] (Vero cells), the “antiviral effect on CoV-2 replication” value is on record as “no antiviral effect”. Moreover, the EC50 is more than 20 µM in [2] (Betacoronavirus 1, OC43, Calu-3, in Homo sapiens, read-out: EC50 in Calu3 cells); more than 20 µM in data set [2] (Betacoronavirus 1, OC43, RD, in Homo sapiens, read-out: EC50 in RD cells); more than 20 µM in [2] (Caco-2, read-out: EC50 in Caco-2 cells); more than 20 µM in data set [5]. Further, the CC50 in [3], in data set [4], in [6] and in data set [7] was more than 100 µM each time.
Take `NC(=O)c1nc(F)c[nH]c1=O` [Compound 8, favipiravir]: the CC50 in [3], in [4], in data set [6] and in [7] was more than 100 µM throughout. Besides, in data set [5], the EC50 is 6.8 µM.
Regarding `C=C1[C@H](CO)[C@@H](O)C[C@@H]1n1cnc2c(=O)[nH]c(N)nc21` [Compound 9, entecavir], the CC50 in data set [4] was more than 100 µM. For the same compound, the EC50 in data set [5] was more than 20 µM.
Take `C[C@@]1(O)[C@H](O)[C@@H](CO)O[C@H]1n1ccc(N)nc1=O` [Compound 1, 2′-C-methylcytidine]: the “selectivity index (SI) for SARS-CoV-2” value in data set [1] (CC50/EC50, Vero cells) is recorded as more than 10. The CC50 in data set [4] was more than 100 µM. Besides, the EC50 in data set [5] turned out to be 10 ± 0.7 µM. Further, the “toxicity in Vero cells” value in [8] (up to 100 μM) is “no toxicity”.
With `CC(C)OC(=O)[C@H](C)N[P@](=O)(CO[C@H](C)Cn1cnc2c(N)ncnc21)Oc1ccccc1` [Compound 15, tenofovir alafenamide], in data set [4], the CC50 amounted to 36.4 µM. Further, the EC50 in data set [5] was more than 20 µM.
Regarding `C[C@@]1(O)[C@H](O)[C@@H](CO)O[C@H]1n1cc(F)c2c(N)ncnc21` [Compound 2, 7-deaza-7-fluoro-2′-C-methyladenosine], the “selectivity index (SI) for SARS-CoV-2” value in data set [1] is more than 10. Further, the CC50 in data set [4] was more than 100 µM. Also, the EC50 in [5] turned out to be 6.7 ± 1.1 µM. Further, the “toxicity in Vero cells” value in [8] was “no toxicity”.
`CCC(CC)COC(=O)[C@H](C)N[P@](=O)(OC[C@H]1O[C@@](C#N)(c2ccc3c(N)ncnn23)[C@H](O)[C@@H]1O)Oc1ccccc1` [Compound 10, remdesivir]: in data set [1] (CC50/EC50, Vero cells), the “selectivity index (SI) for SARS-CoV-2” value is recorded as more than 100. In addition, the “virus-yield decrease, CoV-2” value in data set [1] (Vero cells) was more than 90%. Further, the time to recovery in [9] is 11 days. Besides, the EC50 in data set [10] was 1.85 µM; in [5], 0.04 ± 0.1 µM. Also, in data set [4], the CC50 was more than 100 µM. Further, in data set [5] (CC50/EC50, Huh-7 cells), the “selectivity index (SI) for HCoV-OC43” value was 52.
Regarding `NC(=O)c1ncn([C@@H]2O[C@H](CO)[C@@H](O)[C@H]2O)n1` [Compound 12, ribavirin], the “antiviral effect on CoV-2 replication” value in data set [1] (Vero cells) is recorded as “did not exhibit a marked inhibitory effect”. The same compound came in with a CC50 in [4] of more than 100 µM. For the same compound, the EC50 in data set [5] was 20.6 µM. In addition, the “antiviral activity against HCoV-OC43” value in data set [5] (Huh-7 cells) was “did not exhibit a marked inhibitory effect”.
Consider `CC(C)OC(=O)OCOP(=O)(CO[C@H](C)Cn1cnc2c(N)ncnc21)OCOC(=O)OC(C)C` [Compound 16, tenofovir disoproxil fumarate], for which the “antiviral effect on CoV-2 replication” value in [1] (Vero cells) is listed as “did not show any activity”. The CC50 in data set [4] is more than 100 µM. Besides, the EC50 in data set [5] is more than 20 µM. Further, in [5] (Huh-7 cells), the “antiviral activity against HCoV-OC43” value was “did not show any activity”.
Regarding `Nc1nc(=O)n([C@@H]2CS[C@H](CO)O2)cc1F` [Compound 14, emtricitabine], the CC50 in data set [3], in [4], in data set [6] and in [7] was more than 100 µM throughout. The EC50 in [5] is more than 20 µM.
For the compound `Nc1ccn([C@@H]2O[C@@](CO)(CCl)[C@@H](O)[C@H]2F)c(=O)n1` [Compound 5, ALS-8112], the “antiviral effect on CoV-2 replication” value in [1] (Vero cells) is recorded as “did not have a marked effect”. The same compound showed a CC50 in data set [4] of more than 100 µM. Moreover, the EC50 in data set [5] is more than 20 µM.
With `N#C[C@@]1(c2ccc3c(N)ncnn23)O[C@H](CO)[C@@H](O)[C@H]1O` [Compound 11, GS-441524], the “selectivity index (SI) for SARS-CoV-2” value in data set [1] (CC50/EC50, Vero cells) is 12. The “virus-yield decrease, CoV-2” value in data set [1] (Vero cells) is given as more than 90%. The figures for the EC50 in data set [10] and in data set [5] were 0.47 µM and more than 10 µM, respectively. Moreover, the CC50 in data set [3], in data set [4], in data set [6] and in [7] was more than 100 µM in each case.
For `Nc1ccn([C@@H]2CS[C@H](CO)O2)c(=O)n1` [Compound 13, lamivudine], the “antiviral effect on CoV-2 replication” value in [1] (Vero cells) was “did not show any activity”. The CC50 in data set [3], in data set [4], in data set [6] and in data set [7] was more than 100 µM throughout. Moreover, in [5], the EC50 is more than 20 µM. Besides, the “antiviral activity against HCoV-OC43” value in [5] (Huh-7 cells) is given as “did not show any activity”.
